Laboratory results reported in patent US6451576B1, “Sesquiterpene synthases from grand fir (Abies grandis), and methods of use” (Washington State University Research Foundation, priority 1998, dated 2002).

Target: T1, γ-humulene synthase (SEQ ID No:24) (Abies grandis, UniProt O64405)
T1 construct: For further subcloning of the amplified, full-length cDNA into the pSBETa vector for high-level expression, the pGAG5 insert was amplified; made in house; host or cells: E. coli XL1-Blue/pGAG5 or E. coli BL21(DE3)/pSBAG5
T1 sequence (O64405 1-593): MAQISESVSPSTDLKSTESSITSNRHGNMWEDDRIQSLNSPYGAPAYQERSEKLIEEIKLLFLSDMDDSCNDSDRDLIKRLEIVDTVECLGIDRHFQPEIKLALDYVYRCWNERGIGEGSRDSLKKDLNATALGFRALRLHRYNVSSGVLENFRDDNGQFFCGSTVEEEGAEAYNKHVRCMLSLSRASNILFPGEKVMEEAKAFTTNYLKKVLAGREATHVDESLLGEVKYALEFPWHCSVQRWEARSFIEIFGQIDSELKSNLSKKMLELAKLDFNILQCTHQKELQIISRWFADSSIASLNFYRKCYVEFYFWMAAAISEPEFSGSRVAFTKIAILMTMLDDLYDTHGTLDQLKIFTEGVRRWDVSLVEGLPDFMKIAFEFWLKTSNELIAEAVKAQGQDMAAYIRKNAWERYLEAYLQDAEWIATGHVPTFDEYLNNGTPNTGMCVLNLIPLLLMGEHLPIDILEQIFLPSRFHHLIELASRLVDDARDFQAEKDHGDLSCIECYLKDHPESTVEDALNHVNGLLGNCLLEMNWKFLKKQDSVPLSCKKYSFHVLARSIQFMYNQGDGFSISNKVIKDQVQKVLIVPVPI
Assay: Kinetic parameters, metal ion requirement and substrate specificity of recombinant γ-humulene synthase
Format: biochemical
Method: The assay for recombinant sesquiterpene synthase (cyclase) activity was performed in 1 ml of buffer (extraction buffer without MnCl2 or the polymeric adsorbents) containing 3.5 μM [1-^3H]farnesyl diphosphate and the total protein extracted from a 5 ml bacterial culture to produce 10^5-10^6 dpm of product in 2 h at 31° C. The incubation mixture was overlaid with 1 ml pentane to trap volatile products. After incubation, the reaction mixture was extracted with pentane (3×1 ml) and the combined extract was passed through a MgSO4-silica gel column to provide the terpene hydrocarbon fractions as before. The columns were subsequently eluted with 3×1 ml of ether to collect any oxygenated products, and an aliquot of each fraction was taken for liquid scintillation counting to determine conversion rate. The monoterpene synthase and diterpene synthase activity assays were similarly performed as described in detail elsewhere (LaFever, R. E., et al., (1994) Arch. Biochem. Biophys. 313, 139-149; Bohlmann, J., et al., (1997) J. Biol. Chem. 272, 21784-21792; Lewinsohn, E., et al., (1991) Plant Physiol. 96, 38-43).
The substrate specificity and other kinetic. parameters of γ-humulene synthase (SEQ ID No:24) and δ-selinene synthase (SEQ ID No:20) were investigated in order to confirm the identification and classification of these enzymes. […] Neither of these sesquiterpene synthases requires K^+ or other monovalent cation for activity.
Substrate specificity of δ-selinene synthase (SEQ ID No:20) and γ-humulene synthase (SEQ ID No:24) was evaluated by comparing farnesyl diphosphate (C15) to geranyl diphosphate (C10) and geranylgeranyl diphosphate (C20) at saturation as precursors of the respective terpene olefins. […] The identities of the monoterpene products produced by the sesquiterpene synthases were determined by GLC-MS and are set forth in FIG. 4.

| SMILES | olefin formation from substrate at saturation, compared with farnesyl diphosphate |
| --- | --- |
| CC(C)=CCC/C(C)=C/CC/C(C)=C/CC/C(C)=C/COP(=O)(O)OP(=O)(O)O [geranylgeranyl diphosphate, reference compound] | failed to generate detectable olefinic products |
| CC(C)=CCC/C(C)=C/COP(=O)(O)OP(=O)(O)O [geranyl diphosphate, reference compound] | roughly half the rate |
